The results in this text go back to patent publication US10463664B2, “Inhibitors of HSV nucleotidyl transferases and uses therefor” (Saint Louis University, priority 2013, dated 2019).

A short description of data set [1]: CytoTox-Glo cellular lysis assay in Vero cells. The class given is cell-based. The settings on record: African green monkey, Vero cells, read-out: Vero cell toxicity CTG CC50. The procedure:
(§1) Quantitative toxicity measurements were conducted for all compounds that suppressed HSV replication by approximately 2 login or more at 5 μM plus a number of compounds with lesser inhibitory activity for comparison. Toxicity was assessed by measuring release of intracellular proteases into the culture medium due to cellular lysis. […] Consistent with the subjective assessments of toxicity, all compounds selected for quantitative toxicity assessment had CC50 values ≥50 μM by both the MTT and cellular lysis assays (Table 1).

A further data set has as its system HSV-1. Briefly: Topical treatment of mice infected with HSV-1 on the cornea. It is filed as in vivo. The settings on record: for Body weight post-infection: 1 μg three times daily for 5 days. On the procedure: Compounds were administered at 1 μg/eye in 10% DMSO. Two mice were treated with 10% DMSO as a negative control. The corneal surface was swabbed once per day on days 1, 2, 4 and 5 post-infection and titer of virus shed from the epithelium was determined by standard plaque assay. On the fifth day post-infection mice were euthanized and the trigeminal ganglia (TG) and brainstems were dissected. The tissues were disrupted and virus in them quantified by plaque assay. […] Weight of individual mice was recorded daily. […] Saline was a negative control. On the fifth day post-infection mice were euthanized and the trigeminal ganglia (TG) and brainstems were dissected. The tissues were disrupted and virus in them quantified by plaque assay.
Body weight was monitored daily post-infection as a sensitive indicator of overall health (FIG. 12).
Infected mice treated with saline served as a negative control.

Data set [2] in a line: MTT mitochondrial toxicity assay in Vero cells. It is filed as cell-based. The settings on record: African green monkey, Vero cells, read-out: Vero cell toxicity MTT CC50.
A short description of another data set: in vitro. The settings on record: human. Put shortly:
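Primary HFF, 1.0×10^4/well, exposed 24 h to 0.78–100 μM compound in 1% DMSO. Viability read by MTT (0.25 mg/mL, 60 min, 570 nm) and by protease-release lysis luminescence. CC50 by non-linear fit of percent viability.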

In the next data set the test system is Vero cells. Nature of the data set: CytoTox-Glo cellular lysis assay in Vero cells. The class given is cell-based. The settings on record: 24 h; read-out: Vero cell toxicity CTG CC50. On the procedure: as §1
The nature of data set [3]: Neutral red cytotoxicity assay in uninfected HFFs (14 day, with CPE assay). It is filed as cell-based, human. Conditions: human, uninfected human foreskin fibroblasts (HFFs). On the procedure: Anti-HCMV CPE inhibition and cytotoxicity assays. HFFs were infected with HCMV strain AD169 in the presence of serial dilutions of the compounds from 0.0192 to 60 μM. Fourteen days later the monolayers were stained with crystal violet, and retained cell density was quantified using a multiplate autoreader (BioTek). Cytotoxicity was measured the same way, except that the cells were uninfected and neutral red internalization by viable cells was measured.
Antiviral efficacy against HCMV. The ability of select HSV inhibitors to inhibit replication of another major human herpesvirus pathogen, human cytomegalovirus (HCMV) (65) was tested. This was based on the inhibitors strong suppression of HSV-1 and HSV-2 and the prediction that other members of the herpesvirus family would be sensitive to NTS inhibitors due to their shared DNA replication mechanism. Compounds #41, 46, 49, 55, 56, and 59 and the FDA-approved anti-HCMV drug ganciclovir were evaluated with crystal violet CPE and neutral red toxicity assays in HFFs. HFFs were infected with HCMV in the presence of serial dilutions of the compounds that were most inhibitory for HSVs. After 14 days the monolayers were stained and cell density was determined by OD reading. Compound cytotoxicity for uninfected cells was determined in the same manner except that neutral red uptake by viable cells was measured. […] The TI values for the four NTS inhibitors of HCMV ranged from 4 for compound #41 to 38 for #56. Therefore, NTS inhibitors can suppress HCMV replication in addition to inhibiting the HSVs.

Data set [4] in a line: Neutral red cytotoxicity assay in HFFs (10 day, with plaque reduction assay). The class given is cell-based, human. The settings on record: human, uninfected primary human foreskin fibroblasts (HFFs), 10 day assay. The procedure: HCMV plaque reduction EC50 and toxicity assays. Low passage primary HFFs were infected with HCMV strain AD169 in the presence of serial dilutions of the compounds from 0.032 to 100 μM. Ten days later the monolayers were stained with 1% neutral red solution in PBS. After rinsing, plaques were counted using a stereomicroscope and the EC50 was interpolated from the data. Cytotoxicity was measured using a plate-based assay in which compounds were added to HFFs at 0.032 to 100 μM. At the end of the incubation period, plates were stained for 1 h with a neutral red solution in PBS. The stain was then removed, the plates rinsed in PBS and dried, and dye internalized by viable cells was determined at OD550. CC50 values were interpolated from the data.
Compounds #41, 46, 49, 55, 56, and 59 and the FDA-approved, anti-HCMV drug ganciclovir were subsequently evaluated with plaque reduction and toxicity assays in HFFs. HFFs were infected with HCMV in the presence of serial dilutions of the compounds. After 10 days the cultures were stained with neutral red and plaques were counted. Compound cytotoxicity for uninfected cells was determined in the same manner except that neutral red uptake by viable cells was measured by optical density. […] The TI values for the five NTS inhibitors of HCMV ranged from 5 for compound #46 to 17 for #55 and 59. Therefore, NTS inhibitors can suppress HCMV replication in addition to inhibiting the HSVs.

In another data set the test system is HSV-1 strain KOS. Briefly: Resistance evolution by passage of HSV-1 KOS in presence of inhibitor. It is filed as cell-based, herpes simplex virus 1. Conditions: compared with unselected KOS. On the procedure:
Cultures were scraped and collected when virus-induced cytopathic effect was evident (24-72 h). […] This process was repeated three times, maintaining the independent lineages. […] Inhibition was determined by subtracting a lineage's titer in the presence of inhibitor from its titer in the presence of diluent control.

The mark [5] stands for this setting: 1 μg/eye once daily, compared with DMSO control.
The mark [6] stands for this setting: 7.5 μg/eye three times per day, BALB/c mice, versus saline control.

Take `Nc1nc2c(ncn2COCCO)c(=O)[nH]1` [ACV, Acyclovir, reference compound]: the CC50 at 24 h (in data set [1]; in data set [2]; in “in vitro”) was above 100 µM in each case. In addition, the Body weight post-infection result with HSV-1 is listed as “maintained their weight through 8 days post-infection”. The “Virus in the TG at 5 days post-infection” value in the data set with HSV-1 (setting [5]) is on record as “significantly reduced”. For the same compound, the “Virus shed in the tear film” value in the data set on HSV-1 (setting [5]) is reported as “transiently reduced”. Besides, in the data set on HSV-1 (setting [6]), the “Titers of virus in the TG on day 5 post-infection” value is given as “reduced to a similar extent”.
In the case of `CCOc1ccc(-c2c3cc(O)c(=O)cc-3oc3cc(O)c(O)cc23)cc1` [Compound 30], the CC50 with Vero cells is above 100 µM.
As for `Cc1cc(C2CCCCC2)n(O)c(=O)c1` [Compound 41, Ciclopirox, reference compound], the CC50 at 24 h in data set [1] was above 100 µM; in data set [2] it was above 50 µM; in “in vitro”, above 100 µM. Moreover, the “Titers of virus in the TG on day 5 post-infection” value in the data set on HSV-1 (setting [6]) was “lower”. Moreover, the “Titers of virus in the brainstem on day 5 post-infection” value in the data set with HSV-1 (setting [6]) is reported as “lower”. Further, the CC50 at 14 days in data set [3] was determined as 8.9 µM. Besides, the CC50 at 10 days in data set [4] turned out to be 2.9 µM. Further, in the data set with HSV-1 strain KOS, the “Sensitivity of inhibitor-selected lineages after 3 rounds of growth (in words)” value is reported as “remained as sensitive”.
For the compound `CC(C)c1ccc(O)c(=O)c(O)c1` [Compound 46, Beta-thujaplicinol], in the data set with Vero cells, the CC50 was above 100 µM. Moreover, the Body weight post-infection entry in the data set on HSV-1 is given as “maintained their weight through 8 days post-infection”. In the data set with HSV-1 (setting [5]), the “Virus in the TG at 5 days post-infection” value is “significantly reduced”, the “Virus in the brainstem at 5 days post-infection” value is reported as “significantly reduced” and the “Virus shed in the tear film” value was “transiently reduced”. In addition, the “Sensitivity of inhibitor-selected lineages after 3 rounds of growth (in words)” value in the data set with HSV-1 strain KOS is “remained as sensitive”.
As for `CC(C)=CCc1ccc(O)c(=O)cc1C(C)C` [Compound 49, Nootkatin], in the data set on Vero cells, the CC50 was above 100 µM.
In the case of `CC(=O)NC(CCc1ccc(Cl)c(Cl)c1)c1cccc(O)c(=O)c1` (stereo not shown) [Compound 55], the CC50 in the data set with Vero cells is above 100 µM.
As for `C=C(C)C1CCc2c(c(C)cc(O)c(=O)c2O)C1` (stereo not shown) [Compound 56, Manicol], in the data set on Vero cells, the CC50 was around 100 µM.
